Data taken from PubChem BioAssay AID330 (DTP/NCI, 2004).
Several values for one entry are separate records, joined by “and”; a condition that tells them apart may be missing. Identical values can stand only once. Toxic doses and inconclusive results are not listed.

System: P388 leukemia ip, CD2F1 mice, survival T/C
Assay: NCI In Vivo Anticancer Drug Screen. Data for tumor model P388 Leukemia (intraperitoneal) in CD2F1 (CDF1) mice
Conditions: endpoint: median survival time, higher = longer survival
Summary of the method: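 Mice carrying the transplanted tumor received test compound or vehicle. Survival was recorded in each group, and the value is the treated-group measurement divided by that of the vehicle-treated control group.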

[1] = dose: 50.0 mg/kg/injection, schedule: Q01DX005 (ip), vehicle: saline with Tween-80
[2] = dose: 100.0 mg/kg/injection, schedule: Q01DX005 (ip), vehicle: saline with Tween-80
[3] = dose: 200.0 mg/kg/injection, schedule: Q01DX005 (ip), vehicle: saline with Tween-80
[4] = dose: 50.0 mg/kg/injection, schedule: Q01DX009 (ip), vehicle: Klucel (hydroxypropylcellulose) (HPC)
[5] = dose: 100.0 mg/kg/injection, schedule: Q01DX009 (ip), vehicle: Klucel (hydroxypropylcellulose) (HPC)
[6] = dose: 200.0 mg/kg/injection, schedule: Q01DX009 (ip), vehicle: Klucel (hydroxypropylcellulose) (HPC)
[7] = dose: 60.0 mg/kg/injection, schedule: Q01DX005 (ip), vehicle: Klucel (hydroxypropylcellulose) (HPC)
[8] = dose: 120.0 mg/kg/injection, schedule: Q01DX005 (ip), vehicle: Klucel (hydroxypropylcellulose) (HPC)
[9] = dose: 240.0 mg/kg/injection, schedule: Q01DX005 (ip), vehicle: Klucel (hydroxypropylcellulose) (HPC)
[10] = dose: 60.0 mg/kg/injection, schedule: Q01DX005 (ip), vehicle: saline with Tween-80
[11] = dose: 120.0 mg/kg/injection, schedule: Q01DX005 (ip), vehicle: saline with Tween-80
[12] = dose: 240.0 mg/kg/injection, schedule: Q01DX005 (ip), vehicle: saline with Tween-80
[13] = dose: 50.0 mg/kg/injection, schedule: Q01DX009 (ip), vehicle: saline with Tween-80
[14] = dose: 60.0 mg/kg/injection, schedule: Q01DX005 (ip), vehicle: saline
[15] = dose: 120.0 mg/kg/injection, schedule: Q01DX005 (ip), vehicle: saline
[16] = dose: 240.0 mg/kg/injection, schedule: Q01DX005 (ip), vehicle: saline

With `COCC1(C)CCCC2(C)C1CCC13CCC(O)CC12O3` (stereo not drawn) the T/C (dose: 100.0 mg/kg/injection, schedule: Q01DX001 (ip), vehicle: saline) was 105 % of control, the T/C (dose: 200.0 mg/kg/injection, schedule: Q01DX001 (ip), vehicle: saline) was 105 % of control and the T/C (dose: 400.0 mg/kg/injection, schedule: Q01DX001 (ip), vehicle: saline) was 103 % of control.
For `O=C1/C(=C/c2ccccc2)CCCC12C(c1ccccc1)N2C1CCCCC1` (stereo not drawn), the T/C (dose: 100.0 mg/kg/injection, schedule: Q04DX002 (ip), vehicle: Klucel (hydroxypropylcellulose) (HPC)) was 93 % of control, the T/C (dose: 200.0 mg/kg/injection, schedule: Q04DX002 (ip), vehicle: Klucel (hydroxypropylcellulose) (HPC)) was 86 % of control and the T/C (dose: 400.0 mg/kg/injection, schedule: Q04DX002 (ip), vehicle: Klucel (hydroxypropylcellulose) (HPC)) was 92 % of control.
`NC(CCSCc1ccccc1)P(=O)(O)O` (stereo not drawn) was tested, and the T/C [1] was 100 % of control, the T/C [2] was 97 % of control and the T/C [3] was 92 % of control.
With `C[N+](C)(CCCCOc1c(Br)cc(Br)cc1Br)Cc1ccc([N+](=O)[O-])o1` the T/C (dose: 12.5 mg/kg/injection, schedule: Q04DX003 (ip), vehicle: Klucel (hydroxypropylcellulose) (HPC)) was 100 % of control, the T/C (dose: 25.0 mg/kg/injection, schedule: Q04DX003 (ip), vehicle: Klucel (hydroxypropylcellulose) (HPC)) was 101 % of control and the T/C (dose: 50.0 mg/kg/injection, schedule: Q04DX003 (ip), vehicle: Klucel (hydroxypropylcellulose) (HPC)) was 100 % of control.
In the case of `O=C(C[n+]1ccccc1)NC(O)C(Cl)(Cl)Cl` (stereo not drawn), the T/C (dose: 50.0 mg/kg/injection, schedule: Q01DX005 (ip), vehicle: saline) is reported as 106 % of control, the T/C (dose: 100.0 mg/kg/injection, schedule: Q01DX005 (ip), vehicle: saline) is reported as 105 % of control and the T/C (dose: 200.0 mg/kg/injection, schedule: Q01DX005 (ip), vehicle: saline) is reported as 109 % of control.
For `O=C1CC(=P(c2ccccc2)(c2ccccc2)c2ccccc2)C(=O)O1`, the T/C (dose: 50.0 mg/kg/injection, schedule: Q04DX003 (ip), vehicle: saline) was 102 % of control, the T/C (dose: 100.0 mg/kg/injection, schedule: Q04DX003 (ip), vehicle: saline) was 100 % of control and the T/C (dose: 200.0 mg/kg/injection, schedule: Q04DX003 (ip), vehicle: saline) was 109 % of control. The T/C (dose: 400.0 mg/kg/injection, schedule: Q04DX003 (ip), vehicle: saline) was 106 % of control.
`O=C1NC(=S)S/C1=C\c1ccncc1` was tested, and the T/C [4] was 100 % of control and 110 % of control and 116 % of control, the T/C [5] was 106 % of control (2×) and 114 % of control and the T/C [6] was 98 % of control and 121 % of control and 91 % of control. The T/C (dose: 400.0 mg/kg/injection, schedule: Q01DX009 (ip), vehicle: Klucel (hydroxypropylcellulose) (HPC)) was 106 % of control.
For `OCC1N2CCC(CC2)C1(O)O` (stereo not drawn), the T/C (dose: 100.0 mg/kg/injection, schedule: Q04DX003 (ip), vehicle: suspension in saline) was 96 % of control, the T/C (dose: 200.0 mg/kg/injection, schedule: Q04DX003 (ip), vehicle: suspension in saline) was 100 % of control and the T/C (dose: 400.0 mg/kg/injection, schedule: Q04DX003 (ip), vehicle: suspension in saline) was 106 % of control.
For `CCCN(C)C(=O)N(CCCl)N=O`, the T/C (dose: 16.0 mg/kg/injection, schedule: Q01DX001 (ip), vehicle: water) was 166 % of control and the T/C (dose: 32.0 mg/kg/injection, schedule: Q01DX001 (ip), vehicle: water) was 240 % of control.
With `C=Cc1cnc([N+](=O)[O-])n1C` the T/C [4] was 110 % of control and 123 % of control, the T/C [5] was 111 % of control and the T/C [6] was 153 % of control.
`CCCC12C=C(OC)C(=O)C=C1OC(c1cc(OC)c(OC)c(OC)c1)C2C` (stereo not drawn) was tested, and the T/C (dose: 8.75 mg/kg/injection, schedule: Q01DX005 (ip), vehicle: Klucel (hydroxypropylcellulose) (HPC)) was 101 % of control, the T/C (dose: 17.5 mg/kg/injection, schedule: Q01DX005 (ip), vehicle: Klucel (hydroxypropylcellulose) (HPC)) was 96 % of control and the T/C (dose: 35.0 mg/kg/injection, schedule: Q01DX005 (ip), vehicle: Klucel (hydroxypropylcellulose) (HPC)) was 100 % of control.
With `C=C(CC(=O)O)C(N)C(=O)O` (stereo not drawn) the T/C [7] was 104 % of control, the T/C [8] was 100 % of control and the T/C [9] was 106 % of control.
In the case of `O=S(=O)(c1cccc(C(F)(F)F)c1)N(CCCCCN(S(=O)(=O)c1cccc(C(F)(F)F)c1)S(=O)(=O)c1cccc(C(F)(F)F)c1)S(=O)(=O)c1cccc(C(F)(F)F)c1`, the T/C [7] is reported as 101 % of control, the T/C [8] is reported as 92 % of control and the T/C [9] is reported as 88 % of control.
With `CN1CCC2c3c([nH]c4ccccc34)C(C)(C)OC2C1` (stereo not drawn) the T/C [10] was 111 % of control, the T/C [11] was 113 % of control and the T/C [12] was 118 % of control.
For `COc1nc2c(ccn2C2OC(COC(C)=O)C(OC(C)=O)C(OC(C)=O)C2OC(C)=O)c(=O)[nH]1` (stereo not drawn), the T/C (dose: 100.0 mg/kg/injection, schedule: Q01DX001 (ip), vehicle: saline with Tween-80) was 104 % of control, the T/C (dose: 200.0 mg/kg/injection, schedule: Q01DX001 (ip), vehicle: saline with Tween-80) was 100 % of control and the T/C (dose: 400.0 mg/kg/injection, schedule: Q01DX001 (ip), vehicle: saline with Tween-80) was 100 % of control.
In the case of `CC(=O)OCC1CC2COCC2CC1COC(C)=O` (stereo not drawn), the T/C [10] is reported as 100 % of control, the T/C [11] is reported as 108 % of control and the T/C [12] is reported as 102 % of control.
In the case of `CN(CCCN(C)CCC1CCCCC1)CCC1CCCCC1`, the T/C (dose: 12.5 mg/kg/injection, schedule: Q01DX009 (ip), vehicle: saline with Tween-80) is reported as 100 % of control, the T/C (dose: 25.0 mg/kg/injection, schedule: Q01DX009 (ip), vehicle: saline with Tween-80) is reported as 103 % of control and the T/C [13] is reported as 105 % of control.
`CS(=O)(=O)OCCN(CCOS(C)(=O)=O)c1ccc(C=Nc2ccc(-c3csc(Cc4ccccc4)n3)cc2)cc1` was tested, and the T/C (dose: 6.25 mg/kg/injection, schedule: Q01DX009 (ip), vehicle: saline) was 115 % of control, the T/C (dose: 12.5 mg/kg/injection, schedule: Q01DX009 (ip), vehicle: saline) was 110 % of control and the T/C (dose: 12.5 mg/kg/injection, schedule: Q01DX009 (ip), vehicle: suspension in saline) was 163 % of control. The T/C (dose: 25.0 mg/kg/injection, schedule: Q01DX009 (ip), vehicle: suspension in saline) was 164 % of control, the T/C (dose: 50.0 mg/kg/injection, schedule: Q01DX009 (ip), vehicle: saline) was 153 % of control and the T/C (dose: 50.0 mg/kg/injection, schedule: Q01DX009 (ip), vehicle: suspension in saline) was 174 % of control.
With `CC1=CC(c2ccccc2)=CS(=O)(N(C)C)=C1` (stereo not drawn) the T/C [14] was 100 % of control, the T/C [15] was 104 % of control and the T/C [16] was 104 % of control.
In the case of `CC(=O)OC(C(=O)CCl)C(OC(C)=O)C(OC(C)=O)C(=O)CCl` (stereo not drawn), the T/C (dose: 12.5 mg/kg/injection, schedule: Q01DX009 (ip), vehicle: distilled water + Tween-80 + alcohol) is reported as 93 % of control, the T/C (dose: 25.0 mg/kg/injection, schedule: Q01DX009 (ip), vehicle: distilled water + Tween-80 + alcohol) is reported as 101 % of control and the T/C (dose: 50.0 mg/kg/injection, schedule: Q01DX009 (ip), vehicle: distilled water + Tween-80 + alcohol) is reported as 100 % of control.
For `CC1(CC(=O)O)OC(c2ccccc2)=CC1=O` (stereo not drawn), the T/C (dose: 100.0 mg/kg/injection, schedule: Q01DX001 (ip), vehicle: Klucel (hydroxypropylcellulose) (HPC)) was 98 % of control, the T/C (dose: 200.0 mg/kg/injection, schedule: Q01DX001 (ip), vehicle: Klucel (hydroxypropylcellulose) (HPC)) was 92 % of control and the T/C (dose: 400.0 mg/kg/injection, schedule: Q01DX001 (ip), vehicle: Klucel (hydroxypropylcellulose) (HPC)) was 92 % of control.
`O=[N+]([O-])c1ccc(N/N=C(\CO)c2ccccc2)c([N+](=O)[O-])c1` was tested, and the T/C (dose: 50.0 mg/kg/injection, schedule: Q04DX003 (ip), vehicle: saline with Tween-80) was 100 % of control, the T/C (dose: 100.0 mg/kg/injection, schedule: Q04DX003 (ip), vehicle: saline with Tween-80) was 104 % of control and the T/C (dose: 200.0 mg/kg/injection, schedule: Q04DX003 (ip), vehicle: saline with Tween-80) was 100 % of control.
With `COc1ccc(-c2cc(-c3cc(-c4ccc(OC)cc4)nc(N)n3)nc(N)n2)cc1` the T/C [14] was 105 % of control, the T/C [15] was 102 % of control and the T/C [16] was 105 % of control.
`COc1ccc(C#CC2(O)c3ccccc3C(O)(C#Cc3ccc(OC)cc3)c3ccccc32)cc1` (stereo not drawn) was tested, and the T/C [13] was 98 % of control and the T/C (dose: 100.0 mg/kg/injection, schedule: Q01DX009 (ip), vehicle: saline with Tween-80) was 98 % of control.
`COc1cc2c(cc1C(CC(=O)O)c1ccc3c(c1)OCO3)OCO2` (stereo not drawn) was tested, and the T/C [1] was 103 % of control, the T/C [2] was 105 % of control and the T/C [3] was 103 % of control.
